Laboratory results taken from patent US5160526A, “Alkene stabilizers for 3-isothiazolone compounds” (priority 1991, dated 1992).
Each block holds one compound with its values, some of them ahead of it.

Key:
[1] = type: physicochemical
Method: Varying amounts of DHP were added and the vials put in a 55° C. oven. Active ingredient analysis was done periodically.

[2] = type: physicochemical; remark: listed apart in the source
Method: This solution was distributed into 6 vials (3 g each) and varying amounts of cyclohexene were added. The vials were then heated at 55° C. and analyzed periodically.

[3] = Method: A solution of 5-chloro-2methyl-3-isothiazolone ("5-Chloro") and 2-methyl-3-isothiazolone ("2-Methyl") (3.11 g) was prepared in 2-propanol (12.1 g). This solution was distributed in 6 vials. Water (2%) and varying amounts of norbornene were then added. These were then put in a 55° C. oven and analyzed periodically.

- stability imparted to isothiazolones (in words) [1]: imparts no stability
Structure (SMILES): C1=COCCC1 [DHP, 3,4-Dihydro-2H-pyran]

- stabilizer function (in words) [2]: functions as a stabilizer
Structure (SMILES): C1=CCCCC1 [cyclohexene]

- stability realized (in words) [3]: Some stability is realized
- stabilization properties in presence of water (in words) [3]: overwhelms the stabilization properties
Structure (SMILES): C1=CC2CCC1C2 [norbornene]
